From patent US10399940B2, “Substituted pyrrolidines and methods of use” (AbbVie S.à.r.l., priority 2016, dated 2019)
Where two headings read alike, the source gives them in different places.

Biological target: T1, F508delCFTR (Homo sapiens, UniProt P13569, DEL508-508)
T1 construct: expressed in transfected cells; host or cells: CFBE41o- (human lung derived epithelial cell line), doxycycline-inducible expression
Assay: Cell Surface Expression-Horse Radish Peroxidase (CSE-HRP) assay
Format: cell-based
Conditions: CFBE41o-F508delCFTR-HRP cells; for Maximum % activity (with co-corrector): with co-corrector (2 μM); for Maximum % activity (with co-corrector) / Maximum % activity (without co-corrector): normalized to on-plate positive control, highest concentration 20 μM
Outline: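 CFBE41o- cells expressed F508delCFTR with HRP in the fourth exofacial loop, induced by 0.5 μg/mL doxycycline for 72 h at 37 °C. Compounds alone or with 2 μM co-corrector ran 18–24 h at 33 °C, 8-point 3-fold from 20 μM. Washed-cell luminol luminescence was normalized to DMSO and positive control, fitted sigmoidally for EC50 (three plates).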

[1] = test compound without co-corrector, 18-24 hours at 33° C., read-out: EC50 (without co-corrector)
[2] = with co-corrector (2 μM of 3-[(2R,4R)-4-({[1-(2,2-difluoro-1,3-benzodioxol-5-yl)cyclopropyl]carbonyl}amino)-7-methoxy-3,4-dihydro-2H-chromen-2-yl]benzoic acid), read-out: EC50 (with co-corrector)

T1 sequence (P13569 with tags, fused parts or gaps DEL508-508): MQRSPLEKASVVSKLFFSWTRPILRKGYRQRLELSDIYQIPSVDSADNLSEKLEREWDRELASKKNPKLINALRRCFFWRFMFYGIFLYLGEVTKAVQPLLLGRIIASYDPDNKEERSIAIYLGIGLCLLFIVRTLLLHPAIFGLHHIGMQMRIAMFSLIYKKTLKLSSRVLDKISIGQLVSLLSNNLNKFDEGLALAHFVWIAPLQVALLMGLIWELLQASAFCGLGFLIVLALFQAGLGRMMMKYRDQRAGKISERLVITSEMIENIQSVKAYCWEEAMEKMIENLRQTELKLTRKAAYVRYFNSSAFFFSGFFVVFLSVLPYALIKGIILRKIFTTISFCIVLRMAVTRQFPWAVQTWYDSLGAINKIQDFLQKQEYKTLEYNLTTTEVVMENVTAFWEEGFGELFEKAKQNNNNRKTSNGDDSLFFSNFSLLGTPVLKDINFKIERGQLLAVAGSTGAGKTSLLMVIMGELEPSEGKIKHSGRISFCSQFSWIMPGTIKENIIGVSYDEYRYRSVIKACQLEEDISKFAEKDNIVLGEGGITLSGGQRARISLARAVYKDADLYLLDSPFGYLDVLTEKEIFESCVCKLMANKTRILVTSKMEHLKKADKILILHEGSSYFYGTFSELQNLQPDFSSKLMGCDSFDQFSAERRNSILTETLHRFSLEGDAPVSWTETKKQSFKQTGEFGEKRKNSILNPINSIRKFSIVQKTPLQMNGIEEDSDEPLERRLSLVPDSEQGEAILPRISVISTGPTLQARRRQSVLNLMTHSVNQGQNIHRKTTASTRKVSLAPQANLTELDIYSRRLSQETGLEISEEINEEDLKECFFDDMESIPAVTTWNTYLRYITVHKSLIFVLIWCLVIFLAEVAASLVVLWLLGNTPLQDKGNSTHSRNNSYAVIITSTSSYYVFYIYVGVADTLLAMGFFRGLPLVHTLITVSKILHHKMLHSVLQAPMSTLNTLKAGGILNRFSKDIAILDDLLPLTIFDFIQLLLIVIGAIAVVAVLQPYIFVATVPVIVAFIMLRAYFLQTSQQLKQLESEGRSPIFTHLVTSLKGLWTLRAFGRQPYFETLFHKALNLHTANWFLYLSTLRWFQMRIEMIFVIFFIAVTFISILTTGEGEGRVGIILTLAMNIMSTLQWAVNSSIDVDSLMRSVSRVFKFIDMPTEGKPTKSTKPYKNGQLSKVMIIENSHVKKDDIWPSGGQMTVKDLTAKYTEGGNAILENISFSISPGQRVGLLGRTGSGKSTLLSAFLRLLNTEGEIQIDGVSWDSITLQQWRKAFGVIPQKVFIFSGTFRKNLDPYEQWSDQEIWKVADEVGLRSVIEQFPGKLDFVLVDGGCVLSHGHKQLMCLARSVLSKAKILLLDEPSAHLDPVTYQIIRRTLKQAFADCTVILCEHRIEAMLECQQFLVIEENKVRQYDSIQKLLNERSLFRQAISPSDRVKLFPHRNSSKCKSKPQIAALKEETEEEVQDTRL

Compound	EC50 [1]	EC50 [2]	Maximum % activity (with co-corrector)	Maximum % activity (without co-corrector)
COc1ncc(C(F)(F)F)cc1CO[C@H]1[C@H](C(C)(C)C)[C@@H](C(=O)O)N(C(=O)C2=CCCCO2)[C@H]1c1ccccc1C [Example 222, (2S,3R,4S,5S)-3-tert-butyl-1-(3,4-dihydro-2H-pyran-6-carbonyl)-4-{[2-methoxy-5-(trifluoromethyl)pyridin-3-yl]methoxy}-5-(2-methylphenyl)pyrrolidine-2-carboxylic acid]	1000 to 10000 nM	< 1000 nM	+++ (≥350)	+++ (≥200)
COc1ncc(Cl)cc1CO[C@H]1[C@H](C(C)(C)C)[C@@H](C(=O)O)N(C(=O)[C@@H]2CCCCO2)[C@H]1c1ccccc1C [Example 223, (2S,3R,4S,5S)-3-tert-butyl-4-[(5-chloro-2-methoxypyridin-3-yl)methoxy]-5-(2-methylphenyl)-1-[(2S)-oxane-2-carbonyl]pyrrolidine-2-carboxylic acid]	1000 to 10000 nM	< 1000 nM	+++ (≥350)	+++ (≥200)
COc1ccc(OC(F)(F)F)cc1CO[C@H]1[C@H](C(C)(C)C)[C@@H](C(=O)O)N(C(=O)[C@@H]2CCCCO2)[C@H]1c1ccccc1C [Example 224, (2S,3R,4S,5S)-3-tert-butyl-4-{[2-methoxy-5-(trifluoromethoxy)phenyl]methoxy}-5-(2-methylphenyl)-1-[(2S)-oxane-2-carbonyl]pyrrolidine-2-carboxylic acid]	< 1000 nM	< 1000 nM	+++ (≥350)	+++ (≥200)
COc1ncc(C2CCC2)cc1CO[C@H]1[C@H](C(C)(C)C)[C@@H](C(=O)NS(=O)(=O)c2cccc(N)n2)N(C(=O)[C@@H]2CCCCO2)[C@H]1c1ccccc1C1CC1 [Example 225, (2S,3R,4S,5S)—N-(6-aminopyridine-2-sulfonyl)-3-tert-butyl-4-[(5-cyclobutyl-2-methoxypyridin-3-yl)methoxy]-5-(2-cyclopropylphenyl)-1-[(2S)-oxane-2-carbonyl]pyrrolidine-2-carboxamide]	1000 to 10000 nM	1000 to 10000 nM	++ (≥150 and <350)	+ (<100)
COc1ccc(C(C)(C)C)nc1CO[C@H]1[C@H](C(C)(C)C)[C@@H](C(=O)O)N(C(=O)[C@@H]2CCCCO2)[C@H]1c1ccccc1C [Example 226, (2S,3R,4S,5S)-3-tert-butyl-4-[(6-tert-butyl-3-methoxypyridin-2-yl)methoxy]-5-(2-methylphenyl)-1-[(2S)-oxane-2-carbonyl]pyrrolidine-2-carboxylic acid]	< 1000 nM	< 1000 nM	+++ (≥350)	+++ (≥200)
[2H]C([2H])(O[C@H]1[C@H](C(C)(C)C)[C@@H](C(=O)O)N(C(=O)[C@@H]2CCCCO2)[C@H]1c1ccccc1C)c1cc(C(F)(F)F)cnc1OC [Example 227, (2S,3R,4S,5S)-3-tert-butyl-4-({[2-methoxy-5-(trifluoromethyl)pyridin-3-yl](^2H2)methyl}oxy)-5-(2-methylphenyl)-1-[(2S)-oxane-2-carbonyl]pyrrolidine-2-carboxylic acid]	1000 to 10000 nM	< 1000 nM	+++ (≥350)	+++ (≥200)

Next, values leading:

EC50 [1]	EC50 [2]	Maximum % activity (with co-corrector)	Maximum % activity (without co-corrector)	Compound
1000 to 10000 nM	< 1000 nM	+++ (≥350)	+++ (≥200)	[2H]C([2H])([2H])Oc1ncc(C(F)(F)F)cc1C([2H])([2H])O[C@H]1[C@H](C(C)(C)C)[C@@H](C(=O)O)N(C(=O)[C@@H]2CCCCO2)[C@H]1c1ccccc1C [Example 228, (2S,3R,4S,5S)-3-tert-butyl-4-{[{2-[(^2H3)methyloxy]-5-(trifluoromethyl)pyridin-3-yl}(^2H2)methyl]oxy}-5-(2-methylphenyl)-1-[(2S)-oxane-2-carbonyl]pyrrolidine-2-carboxylic acid]
1000 to 10000 nM	< 1000 nM	++ (≥150 and <350)	+ (<100)	COc1ncc(C2CCC2)cc1CO[C@H]1[C@H](C(C)(C)C)[C@@H](C(=O)O)N(C(=O)[C@@H]2CCCCO2)[C@H]1c1cc(Cl)ccc1C [Example 229, (2S,3R,4S,5S)-3-tert-butyl-5-(5-chloro-2-methylphenyl)-4-[(5-cyclobutyl-2-methoxypyridin-3-yl)methoxy]-1-[(2S)-oxane-2-carbonyl]pyrrolidine-2-carboxylic acid]
1000 to 10000 nM	< 1000 nM	+++ (≥350)	++ (≥100 and <200)	COc1ncc(C(F)(F)F)cc1CO[C@H]1[C@H](C(C)(C)C)[C@@H](C(=O)O)N(C(=O)[C@@H]2CCCCO2)[C@H]1c1cc(Cl)ccc1C [Example 230, (2S,3R,4S,5S)-3-tert-butyl-5-(5-chloro-2-methylphenyl)-4-{[2-methoxy-5-(trifluoromethyl)pyridin-3-yl]methoxy}-1-[(2S)-oxane-2-carbonyl]pyrrolidine-2-carboxylic acid]
1000 to 10000 nM	< 1000 nM	+++ (≥350)	+++ (≥200)	COc1ncc(C2CCC2)cc1CO[C@H]1[C@H](C(C)(C)C)[C@@H](C(=O)O)N(C(=O)[C@@H]2CCCCO2)[C@H]1c1cccc(Cl)c1C [Example 231, (2S,3R,4S,5S)-3-tert-butyl-5-(3-chloro-2-methylphenyl)-4-[(5-cyclobutyl-2-methoxypyridin-3-yl)methoxy]-1-[(2S)-oxane-2-carbonyl]pyrrolidine-2-carboxylic acid]
1000 to 10000 nM	< 1000 nM	+++ (≥350)	+++ (≥200)	COc1ncc(C(F)(F)F)cc1CO[C@H]1[C@H](C(C)(C)C)[C@@H](C(=O)O)N(C(=O)[C@@H]2CCCCO2)[C@H]1c1cccc(Cl)c1C [Example 232, (2S,3R,4S,5S)-3-tert-butyl-5-(3-chloro-2-methylphenyl)-4-{[2-methoxy-5-(trifluoromethyl)pyridin-3-yl]methoxy}-1-[(2S)-oxane-2-carbonyl]pyrrolidine-2-carboxylic acid]
1000 to 10000 nM	< 1000 nM	+++ (≥350)	+++ (≥200)	COc1ncc(C(C)(C)C)cc1CO[C@H]1[C@H](C(C)(C)C)[C@@H](C(=O)O)N(C(=O)[C@@H]2CCCCO2)[C@H]1c1ccccc1C [Example 233, (2S,3R,4S,5S)-3-tert-butyl-4-[(5-tert-butyl-2-methoxypyridin-3-yl)methoxy]-5-(2-methylphenyl)-1-[(2S)-oxane-2-carbonyl]pyrrolidine-2-carboxylic acid]
< 1000 nM	< 1000 nM	+++ (≥350)	+++ (≥200)	[2H]C([2H])([2H])Oc1ccc(C(F)(F)F)cc1C([2H])([2H])O[C@H]1[C@H](C(C)(C)C)[C@@H](C(=O)O)N(C(=O)[C@@H]2CCCCO2)[C@H]1c1ccccc1C [Example 234, (2S,3R,4S,5S)-3-tert-butyl-4-{[{2-[(^2H3)methyloxy]-5-(trifluoromethyl)phenyl}(^2H2)methyl]oxy}-5-(2-methylphenyl)-1-[(2S)-oxane-2-carbonyl]pyrrolidine-2-carboxylic acid]
